Consider four compounds from patent US20040197834A1, “Method to increase expression of pgd2 receptors and assays for identifying modulators of prostaglandin d2 receptors” (priority 2001, published 2004).

“Also recorded” adds a separate entry of the source.

The test system of assay [1] is PGD2 receptors (CRTH2 and DP) on HL-60 membranes. Briefly: [3H]PGD2 radioligand binding assay on HL-60 cell membranes. Particulars: for differentiation-induced increase in PGD2 binding competed away: butyric acid differentiated HL-60, Example 3; for tritiated PGD2 binding on membranes competed away: membranes from butyric acid-differentiated HL-60 cells, 1 uM unlabeled competitor, FIG. 2; for binding of labeled PGD2 to membranes: membranes from undifferentiated HL-60 cells. Here is the method: (§1) Membranes were isolated from butyric acid-differentiated HL-60 or undifferentiated AML14.3D10 and used in the PGD2 binding assay in the presence or absence of various 1 uM of non-labeled receptor agonists described here below:
(§2) Specific binding of radioactive PGD2 to the membrane was measured and compared to the value obtained in the absence of competitor (ctrl=100% maximum binding).
(§3) HL-60 or AML14.3D10 cells are collected by centrifugation for 6 min at 300 g at 4° C., washed with PBS, centrifuged as before and suspended in 10 mM HEPES/KOH pH 7.4, 1 mM EDTA. The cells are disrupted by nitrogen cavitation (800 psi for 30 min. on ice) in the presence of protease inhibitors (2 mM AEBSF, 10 μM E-64, 100 μM leupeptin and 0.05 mg/ml pepstatin). Cell membrane is isolated by differential centrifugation at 4° C., first at 1000 g for 10 min then 160 000 g for 30 min. After centrifugation the pellet comprising the cell membrane is suspended in 10 mM HEPES/KOH pH 7.4, 1 mM EDTA, pH 7.4 buffer using Dounce homogenization.
(§4) For these assays, specific receptor binding is defined as total associated radioactivity minus the radioactivity measured in the presence of an excess of unlabeled competing ligand. Where possible, more than one competing ligand is used to define residual nonspecific binding. Ligand binding assays are performed using whole cells or cell membranes derived therefrom.
(§5) Radioligand binding assays are performed in 10 mM HEPES/KOH pH 7.4, 1 mM EDTA containing 10 mM MnCl2 and 0.8 nM [^3H]PGD2, in a final volume of 0.2 ml. The reaction is initiated by the addition of 250 μg of membrane protein, prepared as described above. Ligands in dimethylsulfoxide which is kept constant at 1% (v/v) of the final incubation volume are added. Non-specific binding is determined in the presence of 10 μM PGD2. Incubation is conducted for 60 min. at room temperature and is terminated by rapid filtration through GF/C filters prewetted in cold assay incubation buffer (no EDTA) using a Brandel™ harvester. The filter is then washed with 4 ml of the same buffer and residual radioligand bound to the filter is determined by liquid scintillation counting following equilibration in 5 ml Ultima Gold™ (Packard).

Assay [2] relates to PGD2 receptors (CRTH2 and DP) on AML14.3D10 membranes. Kind of assay: [3H]PGD2 radioligand binding assay on AML14.3D10 cell membranes. Particulars: for differentiation-induced increase in PGD2 binding competed away: butyric acid differentiated AML14.3D10, Example 3; for tritiated PGD2 binding on membranes competed away: membranes from nondifferentiated or differentiated AML14.3D10, 1 uM unlabeled competitor, FIG. 2; for binding of labeled PGD2 to membranes: membranes from undifferentiated AML14.3D10 cells. As to the method:
as §1, §2, §3, §4, §5

Assay [3] deals with AML14.3D10 cells. Briefly: Butyric acid induced differentiation of AML14.3D10 cells, read out as PGD2 binding to membranes. Format: cell-based. To be noted: 0.4 mM butyric acid for 7 days. As to the method: (§6) For example, referring to FIG. 1, shown therein are the results of a binding assay, specifically the binding of radioactive PGD2 to membranes. The assay measures the amount of labeled […] bound to cell membranes derived from the herein disclosed cell lines. Briefly, AML14.3D10 and […] cell lines are incubated in the absence and/or presence of […] of butyric acid for 7 days. Membranes were thereafter isolated from the cells and used in aforementioned PGD2 binding assays.
(§7) On the first day of the experiment cells are split at 2×10^5 cells/ml and supplemented with 0.4 mM butyric acid. On the fourth day the cells are diluted to 2×10^5 cells/ml and the concentration of butyric acid is adjusted to 0.4 mM. The cells are harvested on the seventh day.
(§8) HL-60 or AML14.3D10 cells are collected by centrifugation for 6 min at 300 g at 4° C., washed with PBS, centrifuged as before and suspended in 10 mM HEPES/KOH pH 7.4, 1 mM EDTA. […]
(§9) Radioligand binding assays are performed in 10 mM HEPES/KOH pH 7.4, 1 mM EDTA containing 10 mM MnCl2 and 0.8 nM [^3H]PGD2, in a final volume of 0.2 ml. […] Non-specific binding is determined in the presence of 10 μM PGD2. […] The filter is then washed with 4 ml of the same buffer and residual radioligand bound to the filter is determined by liquid scintillation counting following equilibration in 5 ml Ultima Gold™ (Packard).

Assay [4] has as its system HL-60 cells. Kind of assay: Butyric acid induced differentiation of HL-60 cells, read out as PGD2 binding to membranes. It counts as cell-based. Particulars: 0.4 mM butyric acid for 7 days. Here is the method: as §6, §7, §8, §9

As to `CCCCCC(=O)CCC1C(=O)CC(O)C1C/C=C\CCCC(=O)O` (centres unmarked) [DK-PGD2, 13,14-dihydro-15-keto-PGD2], in assay [1], the “differentiation-induced increase in PGD2 binding competed away” value (“differentiation-induced increase” for short) is on record as “About 90%” and the “tritiated PGD2 binding on membranes competed away” value (from here on “tritiated PGD2 binding”) was “about 90%”. In assay [2], the “differentiation-induced increase” value was “About 90%” and the “tritiated PGD2 binding” value is recorded as “about 90%”.
In the case of `CCCCC[C@H](O)/C=C/[C@H]1C(=O)C[C@H](O)[C@@H]1C/C=C\CCCC(=O)O` [PGD2, Prostaglandin D2], the “binding of labeled PGD2 to membranes” value was “minimal amount of PGD2 binding” in assay [1], “does not bind” in assay [1] (listed as 3HPGD2), “appreciable level of PGD2 binding” in assay [2] and “significant level of binding” in assay [2] (listed as 3HPGD2).
For `O=C(O)CCCCCCC1C(=O)NC(=O)N1CCC(O)C1CCCCC1` (centres unmarked) [BW245C], in assay [1], the “differentiation-induced increase” value is “about 10%” and the “tritiated PGD2 binding” value is given as “about 10%”. In assay [2], the “differentiation-induced increase” value is on record as “about 10%” and the “tritiated PGD2 binding” value is reported as “about 10%”.
In the case of `CCCC(=O)O` [butyric acid], the “effect of butyric acid treatment on PGD2 binding to membranes” value in assay [3] is “significant increase in PGD2 binding; also recorded: increased binding of PGD2”; in assay [4], “significant increase in PGD2 binding; also recorded: acquired the capacity to bind”.
